SMILES | melting point [°C]
Nc1ccc(-c2ccc(C(F)(F)F)cc2)cn1 | 130
COc1ccc2c(c1)N(c1ccc(F)cc1)C(=O)C2(C)N (centres undefined) | 140 to 141
CCCCCCCC(=O)CCC(=O)O | 78 to 78.5
CC(=O)NNC1=Nc2sc(Cl)cc2C(c2c(F)cccc2F)=NC1 | 257 to 260
CC1(O)CC2c3ccccc3CCN2C2CCCCC21 (centres undefined) | 85 to 88
Oc1cc(CBr)c2oc(-c3ccc(O)c(F)c3)cc2c1 | 269 to 271
COc1nsc(Cl)c1Cl | 46 to 48
Cc1ccccc1N1CCN(CCc2ccc(N3CCCNC3=O)cc2)CC1 | 127 to 128
COc1ccc2c(Cl)cc(-c3ccc(Cl)cc3)nc2c1 | 153 to 155
OC(c1ccc(Cl)cc1)c1cccnc1-n1ccnc1 (centres undefined) | 133 to 134
NS(=O)(=O)c1ccsc1C1=NOCCO1 | 180
O=S(=O)(/C=C/c1ccc(Cl)cc1)CS(=O)(=O)/C=C/c1ccc(Cl)cc1 | 178 to 180
COc1cc(C(=O)N2CCN(c3ccc(N)cc3)CC2)cc(OC)c1O | 182 to 183
CC(C)CN(CC(C)C)c1ccc(NC(=O)N(C[C@H]2CC[C@H](CN(C(=O)Nc3ccc(N(CC(C)C)CC(C)C)cc3)C3CCCCC3)CC2)C2CCCCC2)cc1 | 140 to 142
O=C(O)CNc1nccc(-n2cc(C3c4ccccc4C=Cc4ccccc43)c(=S)[nH]c2=O)n1 | 208
C(=NC1CN2CCC1CC2)c1ccc(-c2ccccc2)cc1 (centres undefined) | 82 to 84
Fc1ccc(-n2nccc2NC2=NCCN2)cc1 | 195 to 197
c1ccc(-c2ccc(Nc3nc4ccccc4o3)cc2)cc1 | 213 to 214
COc1csc(Cc2c(C(C)C)cc(C(C)C)c(C(C)O)c2-c2ccc(F)cc2)c1 (single isomer, unassigned; (+)) | 140 to 142
COP(=S)(NNC(C)(C)C)OC | 51 to 54

SMILES | melting point [°C]
CCCCN(Cc1ccc(Cl)cc1)c1cncnc1 | 67 to 68
O=C1CCC(N2C(=O)c3ccccc3C2=O)C(=O)N1CO (centres undefined) | 165
CC1(C)C(=O)C(c2ccc(S(C)(=O)=O)cc2)=C1c1ccc(S(C)(=O)=O)cc1 | 212
N#CCCNC(=O)c1cccc(-c2ccc3ccn(Cc4ccc(Cl)cc4Cl)c3c2)c1 | 153 to 154
COc1ccc2c(c1)CCc1ccccc1C2=O | 72 to 73
Nc1ncnc2c1sc(=O)n2C1OC(CO)C(O)C1O (centres undefined) | 248 to 250
NS(=O)(=O)c1ccc(-c2nn3c(-c4ccc(F)cc4)coc3c2-c2ccc(F)cc2)cc1 | 235 to 237
O=C1OCCN1c1ccc([N+](=O)[O-])c(C(F)(F)F)c1 | 112 to 113
N#Cc1nn(-c2c(Cl)cc(OC(F)(F)F)cc2Cl)cc1C(Cl)=C(Cl)Br | 143 to 144
Cc1c(C(=O)N2Cc3ccccc3Cc3ccccc32)csc1C(N)=O | 201 to 204
COc1cc2c(cc1OC)-c1c(-c3nc(-c4ccccc4)no3)c(-c3cc(C)c(O)c(C)c3)c(C)n1C(C)C2 (racemic) | 203 to 206
C=C1N(CC)C(=O)OC12CCN(CCCN1c3ccccc3Sc3ccccc31)CC2 | 122 to 123
CC(C(=O)O)(c1ccc(OCc2ccc3ccccc3n2)cc1)c1ccc(OCc2ccc3ccccc3n2)cc1 | 208 to 210
Cc1c(C#N)c(N)n(-c2ccccc2Br)c1C | 233 to 235
Cc1nc2c3c(ccn2c1C)[C@H](O)[C@](O)(Cc1ccccc1)[C@@H](c1ccccc1)N3 | 115 to 122
Cc1cc(-c2ccc(Cl)c(OC3SCC(O)C(O)C3O)c2)ccn1 (centres undefined) | 137
OCC1OC(n2cnc3c(NCC(c4ccc(F)cc4)c4ccc(F)cc4)ncnc32)C(O)C1O (centres undefined) | 75 to 80
O=C(Nc1ccc(-n2nc(C(F)(F)F)cc2C(F)(F)F)cc1)c1ccc(Br)cc1Cl | 164 to 167
Clc1ccc2nc(Cl)cn2c1 | 155 to 156
CC(=O)C#CC1CCC2C3CCC4CC(O)CCC4(C)C3CCC12C (centres undefined) | 148 to 150

Next, values leading:

melting point [°C] | SMILES
141 to 142 | CC(C)(C)c1ccc(CCC(O)CC2CCCCC2)cc1NC(=O)CC1c2ccccc2Oc2ccccc21 (centres undefined)
120 to 122 | Oc1cc(Br)c(Cl)c(Br)c1
112 | CC(C)N(C(C)C)S(=O)(=O)N[C@@H](Cc1ccc(Oc2nccc3cnccc23)cc1)C(=O)O
157 | CC(C)(C)CNN(CC(C)(C)C)S(=O)(=O)c1nc(Cl)cs1
200 to 202 | CCOC(=O)c1c(N)sc(C#N)c1C
49 to 50 | CCOC(=O)c1c(C)nn(-c2ccccn2)c1C
108 to 109 | C=CCCOc1ccc(C(=O)Oc2ccc3ccc(=O)oc3c2)cc1
150 to 152 | CC1(C)CC(NC(=O)Nc2ccccc2)c2cc(C#N)ccc21 (centres undefined)
89 to 92 | CCCCc1nc(Cl)c(C(=O)NC)n1Cc1ccc2oc(-c3ccccc3NS(=O)(=O)C(F)(F)F)c(Br)c2c1
189 to 191 | COC[C@@H](O)CN1CCC(c2ccc(-c3nc4c(N[C@H]5[C@@H](C(N)=O)[C@@H]6C=C[C@H]5C6)c(Cl)cnc4[nH]3)c(OC)c2)CC1
103 to 105 | C=C(C)C(=O)Oc1c(C(C)c2cc(C(C)(C)CC)cc(C(C)(C)CC)c2O)cc(C(C)(C)CC)cc1C(C)(C)CC (centres undefined)
202 to 204 | CCNC1C(C)CN(c2c(F)c(N)c3c(=O)c(C(=O)O)cn(C4CC4)c3c2OC)CC1C (centres undefined)
176 to 178 | COc1ccc(-n2c(=O)cc(C(F)(F)F)n(N)c2=O)cc1
111 | CCOC(=O)N1CCC(Nc2nc3cccnc3n2Cc2ccc(CC)o2)CC1
165 to 167 | COC(=O)c1c(C(=O)OC)c(-c2cc(OC)c(OC)c(OC)c2)c2c(OC)c(OC)c(OC)cc2c1O
139 to 142 | CCOCc1nc2c(N)nc3ccccc3c2n1CCOCCNS(=O)(=O)C(C)C
83 to 84 | C=CCN(CC=C)c1nc(Cl)nc2c(SC)ncnc12
80 to 81 | COc1cc(OC)cc(OC(=O)N2CCCC2=O)c1
87 to 89 | CC(=O)O[C@H]1CC[C@H](c2ccc(CCl)cc2)CC1
98 to 100 | CCCCOc1ccc(S(=O)(=O)Nc2onc(C)c2Br)cc1

melting point [°C] | SMILES
240 | CCn1c(N)c(-c2ncc[nH]2)c(=O)c2ccc(-c3ccc(CCCC(=O)NCc4ccncc4)cc3)nc21
208 to 210 | Cc1cc(C)c2c(c1)C(=O)CC21CNC(=O)C1 (centres undefined)
100 to 102 | COc1cc2c(cc1OC)CC(O)(CC(=O)O)CC2 (centres undefined)
178 to 180 | COc1ccc(C(=O)Nc2ccc(Cl)c(Cl)c2)cc1NCc1cccs1
212 to 216 | NC(=O)C1Cc2c([nH]c3ccccc23)CN1 (centres undefined)
157 to 158 | N#Cc1cccnc1N1CCN(CC(=O)Nc2cccc(C(F)(F)F)c2)CC1
202 | CC(=O)Nc1ccc(Oc2ncc(Cl)cn2)cc1
49 to 51 | Cc1ccc(C(=O)Cl)cc1OCc1ccccc1
81 to 82 | COC(=O)c1oc(C(C)(C)C)cc1NC(=O)Nc1ccc(F)cc1
112 | COC(=O)C(=O)c1cc[nH]c1
70 to 72 | O=C(CC(=O)c1ccc(F)cc1)c1ccc(F)cc1
218 to 220 | CC(C)n1nc(-c2c(-c3ccccc3)nn3ccc(OCc4ccncc4)cc23)ccc1=O
118 | NC(=O)NC(CS)Cc1ccccc1 (single isomer, unassigned; (+))
299 to 301 | O=C1NC(=O)C(=Cc2cc(O)c(O)c(Cl)c2)S1
201 | COc1cc(C)c2[nH]ccc2c1C(C)(N)c1nc2cc(C#N)ccc2[nH]1 (single isomer, unassigned; (-))
51.2 to 53.6 | CCc1nn2c(I)cccc2c1N(CC)CCF
210 to 212 | O=C(Nc1ccc2nc(CN3CCCC3)ccc2c1)c1ccc(N2CCCCC2=O)cc1
130 to 135 | COC(=O)COc1cccc2c(O)c(C(C)=O)ccc12
100 | CN(C)CCNc1cc(CNc2ccccc2C(=O)Nc2cccc(C(F)(F)F)c2)ccn1
128 to 131 | COc1cc(C(=O)c2ccccc2[N+](=O)[O-])c(Br)cn1

melting point [°C] | SMILES
108 to 110 | CCC1(c2cccc(S(=O)(=O)c3ccc(C(C)(C)C)cc3)c2)COC(C)(C)O1 (centres undefined)
62 to 64 | O=C(OCc1cncs1)Oc1ccc([N+](=O)[O-])cc1
120 to 123 | Cc1ccc(C)c(NC(=S)N2CCC(c3nc(C4=NOC(c5ccccc5)C4)cs3)CC2)c1 (centres undefined)
99 | CC(=O)N1c2ccc([N+](=O)[O-])cc2CC1C(C)(C)C (centres undefined)
134 | CSc1nn(C(=O)NC(C)(C)C)c(=O)n1N
250 to 252 | Cc1ccc(C)c(NC(=O)CN2C(=O)C3(COc4cc5c(cc43)CCO5)c3ccccc32)c1 (centres undefined)
> 300 | O=C(CC(=O)Nc1ccc2c(c1)NC(=O)/C2=C\c1ccc[nH]1)Nc1ccc(F)cc1
192 to 195 | CSc1nc(N)c(C(N)=S)s1
87 to 88 | COC(=O)C(C)(Oc1ccc(-c2ccc(Cl)cc2)cc1)C(F)(F)F (centres undefined)
206 to 209 | CCc1nc2c(N)nc3ccccc3c2n1CC(C)(C)OCCS(C)(=O)=O
204 to 206 | COc1cc(OC)c2c(=O)[nH]c(-c3cc(C)c(OCCOCc4ccccc4)c(C)c3)nc2n1
162 to 163 | CC1CN(Cc2ccccc2)CC(NC(=O)c2n[nH]c3ccccc23)CN1C (centres undefined)
90 to 91 | CCOC(=O)C=Cc1ccc(C=CC(=O)OCC)c2ccccc12
> 300 | Oc1ccc(-c2nc3cc(O)ccc3o2)c(O)c1
245 to 246 | Cc1cc(CCC(=O)O)nc(-c2nc(=O)c3ccccc3s2)c1
91 to 92 | CCc1cc(NC(C)=O)c(C=O)c(CC)n1
158 to 159 | CC(=O)NC[C@H]1CN(c2ccc3c(c2)C[C@@H](C)N3C=O)C(=O)O1
112 to 115 | COc1cc(N)ccc1-c1sc(C)nc1C
82 to 83 | CCOC(=O)c1cnc(S(=O)Cc2ccccc2)n1-c1c(CC)cccc1CC (centres undefined)

Reference: a melting point compilation (Tetko et al.; mined from patent text by program, amines drawn as free bases though some values may be those of a salt)
